For 25 compounds, inhibition results are on record in patent publication US20240425501A1, “NOVEL BICYCLIC HETEROARYL DERIVATIVES AS SOS1:KRAS PROTEINPROTEIN INTERACTION INHIBITORS” (SATYARX PHARMA INNOVATIONS PVT LTD, priority 2021, published 2024).

For this experiment, the target named is T1, hSOS1 enzyme / KRAS (G12C), GST-Tag, GDP-bound protein (Homo sapiens, UniProt Q07889).
T1 sequence (Q07889 564-1049 limits assumed): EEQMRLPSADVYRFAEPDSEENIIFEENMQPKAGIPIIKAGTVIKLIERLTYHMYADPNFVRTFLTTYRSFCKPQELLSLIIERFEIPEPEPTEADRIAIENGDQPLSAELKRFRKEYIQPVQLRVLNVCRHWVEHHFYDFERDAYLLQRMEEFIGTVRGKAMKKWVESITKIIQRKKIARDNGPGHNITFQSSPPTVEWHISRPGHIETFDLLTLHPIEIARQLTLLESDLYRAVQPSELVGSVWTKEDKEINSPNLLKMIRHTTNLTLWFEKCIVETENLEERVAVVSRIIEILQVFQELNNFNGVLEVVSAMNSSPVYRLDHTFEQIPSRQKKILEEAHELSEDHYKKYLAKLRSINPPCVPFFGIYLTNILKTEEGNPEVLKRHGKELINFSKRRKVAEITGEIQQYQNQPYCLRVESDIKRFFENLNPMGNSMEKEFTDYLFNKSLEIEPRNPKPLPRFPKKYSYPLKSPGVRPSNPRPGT
Put plainly: SOS1-mediated KRAS guanine nucleotide exchange (GEF) assay, HTRF ("On Assay"). The class given is biochemical. The settings on record: 1 μM compound. The protocol:
Biochemical Assay: Measurement of SOS1-Mediated KRAS Guanine Nucleotide Exchange (GEF) Assay
This assay quantifies the HTRF-based SOS1 mediated guanine nucleotide exchange assay detecting GTP binding to KRAS (G12C), GST-Tag, GDP-bound protein. This is also referred as “On Assay”.The assay buffer composition is as follows: 10 mM HEPES pH-7, 150 mM NaCl, 5 mM MgCl2, 1 mM DTT, 0.05% BSA, 0.0025% IGEPAL CA-630 and MilliQ water. 0.5 μl of compounds diluted in assay buffer were dispensed into the respective wells of 384 black well test plate. 4.75 μl of KRAS working solution containing 100 nM KRAS (G12C), GST-Tag, GDP-bound protein GDP-loaded (Reaction biology) and 2 nM Anti GST-Tb cryptate (FRET donor, Cisbio) was added in assay buffer. The components were incubated for 10 min at 25° C.
4.75 μl of hSOS1 working solution containing 20 nM hSOS1 enzyme and 200 nM EDA-GTP-DY-647P (FRET acceptor, synthesized by Jena Bioscience (Germany), supplied as a 1 mM solution) was further added in assay buffer. 4.75 μl of inhibitor control having only 200 nM EDA-GTP-DY-647P1 component without hSOS1 working solution was added in the negative control well. The plate was short spun for few seconds and incubated for 10 min. HTRF was measured using Perkin Elmer-Nivo 5F multimode plate reader.
HTRF settings: EXCITATION FILTER—320/75 nm, EMISSION FILTER (1) —615/8 nm, EMISSION FILTER (2)—665/8 nm
For orientation: In TR-FRET formats the signal depends on donor and acceptor labels being close together.
As a reminder, the inhibition is how much of the control response was suppressed. Read a high inhibition as strong suppression. Compound `CNc1nc(N[C@H](C)c2cc(N)cc(C(F)(F)F)c2)c2cc(N3CCOCC3)ncc2n1` [Example 18, (R)—N4-(1-(3-amino-5-(trifluoromethyl)phenyl)ethyl)-N2-methyl-6-morpholinopyrido[3,4-d]pyrimidine-2,4-diamine] gave an inhibition at 1 µM of at least 50%. As for `CNc1cc2c(N[C@H](C)c3cc(N)cc(C(F)(F)F)c3)nc(N3CCC3)nc2cn1` [Example 56, (R)—N4-(1-(3-amino-5-(trifluoromethyl)phenyl)ethyl)-2-(azetidin-1-yl)-N6-methylpyrido[3,4-d]pyrimidine-4,6-diamine], the figure is at least 50%. As for `C[C@@H](Nc1nc(N2CCC2)nc2cnc(N3CCCC3)cc12)c1cc(N)cc(C(F)(F)F)c1` [Example 16, (R)—N-(1-(3-amino-5-(trifluoromethyl)phenyl)ethyl)-2-(azetidin-1-yl)-6-(pyrrolidin-1-yl)pyrido[3,4-d]pyrimidin-4-amine], the figure is at least 50%; as for `CNCCC(=O)Nc1nc(N[C@H](C)c2cc(N)cc(C(F)(F)F)c2)c2cc(N3CCCC3)ncc2n1` [Example 78], at least 50%. In turn, `CNCCNc1nc(N[C@H](C)c2cc(N)cc(C(F)(F)F)c2)c2cc(N3CCCC3)ncc2n1` [Example 39, (R)—N4-(1-(3-amino-5-(trifluoromethyl)phenyl)ethyl)-N2-(2-(methylamino)ethyl)-6-(pyrrolidin-1-yl)pyrido[3,4-d]pyrimidine-2,4-diamine] gave an inhibition at 1 µM of at least 50%. In turn, `C[C@@H](Nc1nc(N2CCC2)nc2cnc(N3CCN(C4CCC4)CC3)cc12)c1cc(N)cc(C(F)(F)F)c1` [Example 52, (R)—N-(1-(3-amino-5-(trifluoromethyl)phenyl)ethyl)-2-(azetidin-1-yl)-6-(4-cyclobutylpiperazin-1-yl)pyrido[3,4-d]pyrimidin-4-amine] came in with an inhibition at 1 µM of at least 50%. As for `CCN1CCN(c2cc3c(N[C@H](C)c4cc(N)cc(C(F)(F)F)c4)nc(N4CCC4)nc3cn2)CC1` [Example 48, (R)—N-(1-(3-amino-5-(trifluoromethyl)phenyl)ethyl)-2-(azetidin-1-yl)-6-(4-ethylpiperazin-1-yl)pyrido[3,4-d]pyrimidin-4-amine], the figure is at least 50%; as for `CC(C)Nc1cc2c(N[C@H](C)c3cc(N)cc(C(F)(F)F)c3)nc(N3CCC3)nc2cn1` [Example 54, (R)—N4-(1-(3-amino-5-(trifluoromethyl)phenyl)ethyl)-2-(azetidin-1-yl)-N6-isopropylpyrido[3,4-d]pyrimidine-4,6-diamine], at least 50%; as for `COCC(=O)Nc1nc(N[C@H](C)c2cc(N)cc(C(F)(F)F)c2)c2cc(N3CCCC3)ncc2n1` [Example 76, (R)—N-(4-((1-(3-amino-5-(trifluoromethyl)phenyl)ethyl)amino)-6-(pyrrolidin-1-yl)pyrido[3,4-d]pyrimidin-2-yl)-2-methoxyacetamide], under 50%. The result for `CCN1CCN(c2cnc3nc(Cl)nc(N[C@H](C)c4cc(N)cc(C(F)(F)F)c4)c3c2)CC1` [Example 80, (R)—N-(1-(3-amino-5-(trifluoromethyl)phenyl)ethyl)-2-chloro-6-(4-ethylpiperazin-1-yl)pyrido[2,3-d]pyrimidin-4-amine] reads at least 50%; that for `C[C@@H](Nc1nc(NCCN(C)C)nc2cnc(N3CCCC3)cc12)c1cc(N)cc(C(F)(F)F)c1` [Example 9, (R)—N4-(1-(3-amino-5-(trifluoromethyl)phenyl)ethyl)-N2-(2-(dimethylamino)ethyl)-6-(pyrrolidin-1-yl)pyrido[3,4-d]pyrimidine-2,4-diamine], at least 50%; that for `CCN1CCN(c2cc3c(N[C@H](C)c4cc(N)cc(C(F)(F)F)c4)nc(Cl)nc3cc2C)CC1` [Example 71, (R)—N-(1-(3-amino-5-(trifluoromethyl)phenyl)ethyl)-2-chloro-6-(4-ethylpiperazin-1-yl)-7-methylquinazolin-4-amine], at least 50%. The result for `C[C@@H](Nc1nc(N2CCC2)nc2cnc(N3CCOCC3)cc12)c1cc(N)cc(C(F)(F)F)c1` [Example 37, (R)—N-(1-(3-amino-5-(trifluoromethyl)phenyl)ethyl)-2-(azetidin-1-yl)-6-morpholinopyrido[3,4-d]pyrimidin-4-amine] reads at least 50%; that for `COC1CCN(c2cc3c(N[C@H](C)c4cc(N)cc(C(F)(F)F)c4)nc(NC(C)C)nc3cn2)CC1` [Example 42, (R)—N4-(1-(3-amino-5-(trifluoromethyl)phenyl)ethyl)-N2-isopropyl-6-(4-methoxypiperidin-1-yl)pyrido[3,4-d]pyrimidine-2,4-diamine], at least 50%.

In turn, `C[C@@H](Nc1nc(Cl)nc2cnc(N3CCC(O)CC3)cc12)c1cc(N)cc(C(F)(F)F)c1` [Example 29, (R)-1-(4-((1-(3-amino-5-(trifluoromethyl)phenyl)ethyl)amino)-2-chloropyrido[3,4-d]pyrimidin-6-yl)piperidin-4-ol] had an inhibition at 1 µM of at least 50%. The result for `CNc1nc(N[C@H](C)c2cc(N)cc(C(F)(F)F)c2)c2cc(N3CCCC3)ncc2n1` [Example 7, (R)—N4-(1-(3-amino-5-(trifluoromethyl)phenyl)ethyl)-N2-methyl-6-(pyrrolidin-1-yl)pyrido[3,4-d]pyrimidine-2,4-diamine] reads at least 50%; that for `C[C@@H](Nc1nc(Cl)nc2cnc(C3CCOCC3)cc12)c1cc(N)cc(C(F)(F)F)c1` [Example 63, (R)—N-(1-(3-amino-5-(trifluoromethyl)phenyl)ethyl)-2-chloro-6-(tetrahydro-2H-pyran-4-yl)pyrido[3,4-d]pyrimidin-4-amine], at least 50%; that for `COC1CCN(c2cc3c(N[C@H](C)c4cc(N)cc(C(F)(F)F)c4)nc(N(C)C)nc3cn2)CC1` [Example 41, (R)—N4-(1-(3-amino-5-(trifluoromethyl)phenyl)ethyl)-6-(4-methoxypiperidin-1-yl)-N2,N2-dimethylpyrido[3,4-d]pyrimidine-2,4-diamine], at least 50%.

For the compound `COCCOc1nc(N[C@H](C)c2cc(N)cc(C(F)(F)F)c2)c2cc(N3CCCC3)ncc2n1` [Example 4, (R)—N-(1-(3-amino-5-(trifluoromethyl)phenyl)ethyl)-2-(2-methoxyethoxy)-6-(pyrrolidin-1-yl)pyrido[3,4-d]pyrimidin-4-amine], the inhibition at 1 µM was at least 50%. The result for `COCCN(C)c1nc(N[C@H](C)c2cc(N)cc(C(F)(F)F)c2)c2cc(N3CCCC3)ncc2n1` [Example 15, (R)—N4-(1-(3-amino-5-(trifluoromethyl)phenyl)ethyl)-N2-(2-methoxyethyl)-N2-methyl-6-(pyrrolidin-1-yl)pyrido[3,4-d]pyrimidine-2,4-diamine] reads at least 50%; that for `C[C@@H](Nc1nc(N2CCN(C)CC2)nc2cnc(N3CCCC3)cc12)c1cc(N)cc(C(F)(F)F)c1` [Example 6, (R)—N-(1-(3-amino-5-(trifluoromethyl)phenyl)ethyl)-2-(4-methylpiperazin-1-yl)-6-(pyrrolidin-1-yl)pyrido[3,4-d]pyrimidin-4-amine], under 50%. The result for `C[C@@H](Nc1nc(Cl)nc2cnc(C3CCOCC3)cc12)c1cccc(C(F)F)c1F` [Example 64, (R)-2-chloro-N-(1-(3-(difluoromethyl)-2-fluorophenyl)ethyl)-6-(tetrahydro-2H-pyran-4-yl)pyrido[3,4-d]pyrimidin-4-amine] reads at least 50%. `C[C@@H](Nc1nc(N(C)CCO)nc2cnc(N3CCCC3)cc12)c1cc(N)cc(C(F)(F)F)c1` [Example 13, (R)-2-((4-((1-(3-amino-5-(trifluoromethyl)phenyl)ethyl)amino)-6-(pyrrolidin-1-yl)pyrido[3,4-d]pyrimidin-2-yl)(methyl)amino)ethan-1-ol] returned an inhibition at 1 µM of at least 50%. As for `CNc1nc(N[C@H](C)c2cc(N)cc(C(F)(F)F)c2)c2cc(N3CCC(F)CC3)ncc2n1` [Example 33, (R)—N4-(1-(3-amino-5-(trifluoromethyl)phenyl)ethyl)-6-(4-fluoropiperidin-1-yl)-N2-methylpyrido[3,4-d]pyrimidine-2,4-diamine], the figure is at least 50%; as for `CCN1CCN(c2cc3c(N[C@H](C)c4cc(N)cc(C(F)(F)F)c4)nc(Cl)nc3cn2)CC1` [Example 24, (R)—N-(1-(3-amino-5-(trifluoromethyl)phenyl)ethyl)-2-chloro-6-(4-ethylpiperazin-1-yl)pyrido[3,4-d]pyrimidin-4-amine], at least 50%.
